Experimental data from patent publication US9447156B2, “Methods and compositions for inhibiting neddylation of proteins” (St. Jude Children's Research Hospital, priority 2011, dated 2016).
Values belong to the molecule of their own block, whether it stands above or below them.

How the values were obtained:
hDcn2^P = molecular target: T1, hDcn2^P (Homo sapiens, UniProt Q6PH85); test: ITC binding of peptides to hDcn2^P; details: Table 29, peptides with amidated carboxy-terminus
T1 construct: human Dcn1 family members 1-5 (also called DCUND1-DCUND5)
Experimental: (§1) Protein samples were buffer matched by desalting over a NAP-5 column (GE Healthcare) into 50 mM Hepes, 125 mM NaCl, 1 mM BME, pH 7.0 (ITC buffer). Peptides were dissolved by weight to a final concentration of 10 mM in ITC buffer and diluted further in ITC buffer as required for the experiments. Measurements were performed using a MicroCal ITC200. hDcn1^P or yDcn1^P were placed into the sample cell at a final concentration of 400 μM at 18° C. The peptide ligands (4 mM) were constantly injected (1.5 μl). The interval time between each injection was 3 minutes and the duration of each injection was 3 seconds. For titrations involving hE1 and yE1, proteins were placed into the sample cell at a final concentration of 25 μM at 22° C. Peptide ligands (250 μM) were constantly injected (2.5 μl). The interval time between each injection was three minutes and the duration of each injection was 5 seconds. For hCul1^ctd-Rbx1:hDcn1^P binding, proteins were buffer matched by desalting over a NAP-5 column in 25 mM Tris, 0.1 M NaCl, 1 mM BME, pH 7.6. hCul1^ctd-Rbx1 was placed into the sample cell at a final concentration of 55 μM at 22° C. hDcn1^P (550 μM) was constantly injected (2.5 μl). The interval time between each injection was 3 minutes and the duration of each injection was 5 seconds. Obtained spectra were evaluated using Origin (V 7.0) to determine heats of binding and Kd values.
(§2) The affinity of various peptides for hDcn1^P, hDcn2^P, hDcn3^P, hDcn4^P, and hDcn5^P was tested using isothermal titration calorimetry as described in Example 1 and is provided in Table 29.

hDcn5^P = molecular target: T2, hDcn5^P (Homo sapiens, UniProt Q9BTE7); test: ITC binding of peptides to hDcn5^P; details: Table 29, peptides with amidated carboxy-terminus
T2 construct: human Dcn1 family members 1-5 (also called DCUND1-DCUND5)
T2 sequence (Q9BTE7 47-237): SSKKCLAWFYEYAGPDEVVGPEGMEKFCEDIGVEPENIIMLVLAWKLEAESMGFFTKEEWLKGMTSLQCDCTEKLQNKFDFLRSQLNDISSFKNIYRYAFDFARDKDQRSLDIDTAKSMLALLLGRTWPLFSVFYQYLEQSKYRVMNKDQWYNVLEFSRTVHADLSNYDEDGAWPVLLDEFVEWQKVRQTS
Experimental: as §1, with “values. […]” for “values.”

hDcn4^P = molecular target: T3, hDcn4^P (Homo sapiens, UniProt Q92564); test: ITC binding of peptides to hDcn4^P; details: Table 29, peptides with amidated carboxy-terminus
T3 sequence (Q92564 102-292): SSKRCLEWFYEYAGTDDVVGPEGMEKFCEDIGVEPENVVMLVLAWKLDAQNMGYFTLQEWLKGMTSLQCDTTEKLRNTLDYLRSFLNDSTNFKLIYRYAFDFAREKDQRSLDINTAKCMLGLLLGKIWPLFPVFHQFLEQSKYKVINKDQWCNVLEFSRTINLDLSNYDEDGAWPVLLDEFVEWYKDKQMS
Experimental: as §1, with “values. […]” for “values.”

hDcn1^P = molecular target: T4, hDcn1^P (Homo sapiens, UniProt Q96GG9); test: ITC binding of Ubc12/Ube2f peptides to hDcn1^P; details: Table 29, peptides with amidated carboxy-terminus, read-out: Binding Kd for hDcn1^P
T4 construct: hDcn1^P corresponds to residues 62 to the C-terminal residue 259 of hDcn1; GST (cleaved yes); made in house; host or cells: E. coli BL21(DE3)Gold
Experimental: as §1, §2

hCul1^ctd-hRbx1 [1] = test: ITC hDcn1^P binding to hCul1^ctd-hRbx1; details: human versus yeast Kd
Experimental: as §1

yCul1^C+-yRbx1 = details: yeast counterparts; read-out: Kd yCul1^C+-yRbx1:yDcn1^P; cited from earlier work
hCul1^ctd-hRbx1 [2] = test: Pulse-chase assay of [32P]~hNedd8 transfer from hUbc12 to hCul1-hRbx1 with or without hDcn1^P; type: biochemical, human; details: FIG. 3
Experimental: Dcn1^P-mediated co-E3 activity was monitored using pulse-chase assays to exclusively monitor effects of acetylation on Nedd8 transfer to Cul1 without sensing earlier steps in the reaction. For the “pulse”, 10 μM of the indicated versions of yUbc12 were charged with [^32P]-yNedd8 (also referred to as [^32P]-Rub1) as described previously (Scott et al. (2010) Mol Cell 39(5):784-796), resulting in formation of a thiolester-linked yUbc12-[^32P]-yNedd8 intermediate. 10 μM of the indicated versions of hUbc12 were charged similarly with [^32P]-hNedd8, for 15 minutes at room temperature using 0.1 μM hE1, 15 μM [^32P]-hNedd8, in 50 mM Hepes, 100 mM NaCl, 1.25 mM ATP, 2.5 mM MgCl2, pH 7.5. Formation of a yUbc12-[^32P]-yNedd8 or hUbc12-[^32P]-hNedd8 intermediate was quenched with 50 mM EDTA on ice for 5 minutes. Other than in FIG. 3, where additional details are provided, chase reactions with hUbc12 and yUbc12 variants involved dilution of the Ubc12-[^32P]-Nedd8 thioester conjugate to 40 nM in 50 mM BisTris, 100 mM NaCl, 50 mM EDTA, 0.5 mg/ml BSA, pH 6.7. Chase reactions were initiated at 0° C. by the addition of hCul1^ctd-hRbx1, yCul1^C+-yRbx1, hDcn1^P-hCul1^ctd-hRbx1, or yDcn1^P-yCul1^C+-yRbx1 at a final concentration of 125 nM. Aliquots were removed at the indicated times and quenched with 2×SDS-PAGE sample buffer. […]

T4 sequence (Q96GG9 62-259): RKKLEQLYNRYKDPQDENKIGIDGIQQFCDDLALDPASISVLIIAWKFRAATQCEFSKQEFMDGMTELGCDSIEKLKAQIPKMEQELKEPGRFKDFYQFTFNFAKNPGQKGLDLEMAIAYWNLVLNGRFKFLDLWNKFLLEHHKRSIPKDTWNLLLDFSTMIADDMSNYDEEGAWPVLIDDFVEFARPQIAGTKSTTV
T1 sequence (Q6PH85 62-259): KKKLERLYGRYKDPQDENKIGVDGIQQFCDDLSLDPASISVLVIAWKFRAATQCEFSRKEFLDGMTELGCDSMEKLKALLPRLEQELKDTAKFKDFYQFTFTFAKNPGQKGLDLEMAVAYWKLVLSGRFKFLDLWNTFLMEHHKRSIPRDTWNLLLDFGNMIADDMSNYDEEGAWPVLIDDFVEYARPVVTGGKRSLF
yCul1^C+-yRbx1, sequence (Q12018 427-815 limits assumed): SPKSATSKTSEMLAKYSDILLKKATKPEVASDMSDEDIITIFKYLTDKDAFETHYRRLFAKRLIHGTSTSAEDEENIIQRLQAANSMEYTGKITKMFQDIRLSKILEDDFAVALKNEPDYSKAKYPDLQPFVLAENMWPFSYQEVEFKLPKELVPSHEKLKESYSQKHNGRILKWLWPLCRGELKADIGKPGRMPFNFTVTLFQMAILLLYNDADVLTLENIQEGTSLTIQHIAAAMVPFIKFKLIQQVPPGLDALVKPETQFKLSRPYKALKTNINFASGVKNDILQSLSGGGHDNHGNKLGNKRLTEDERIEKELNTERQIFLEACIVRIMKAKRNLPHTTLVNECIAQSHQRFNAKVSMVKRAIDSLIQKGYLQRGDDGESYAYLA
yCul1^C+-yRbx1, sequence (Q08273 32-121 limits assumed, further chain): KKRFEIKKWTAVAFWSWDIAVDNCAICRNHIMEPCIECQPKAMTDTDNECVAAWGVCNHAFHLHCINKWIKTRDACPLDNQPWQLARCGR

- Kd (hDcn2^P): > 400 µM
- Kd (hDcn5^P): > 30 µM
- Kd (hDcn4^P): > 40 µM
- Kd (hDcn1^P): > 500 µM
Molecule: Ac-MLTLASKLKRDDGLKGSRTAATASD-NH2 [hUbe2f^Ac1−25]

- Kd of human proteins relative to yeast counterparts (fold worse) (hCul1^ctd-hRbx1 [1]): approximately 30 fold
Molecule: hDcn1^P: residues 62 to 259 of hDcn1 (SCCRO, DCUN1D1), the potentiating neddylation domain

B1: yDcn1^P: PONY domain of S. cerevisiae Dcn1 (protein)
chain: VYPKELTQVFEHYINNNLFDIDSLVKFIEELGYNLEDLATLCLAHLLGYKKLEEPLKREDFLSTWFMQGCSTISDMQECIKTLDVKLHEDLQYFTQIYNYAFNLILDPNRKDIDTDEGIQYWKLFFQPEYPVRMEPDLLEAWFRFLRDEGKTTISKDTWRMLLLFFKRYPTIQKIISDYDETAAWPFIIDEFYECLQDQQ
- Kd (yCul1^C+-yRbx1): 0.028 µM

B2: CAND1: protein inhibitor of Cul1 neddylation, expressed in E. coli (protein, UniProt Q86VP6 2-1230, looked up)
Cullin-associated …: ASASYHISNLLEKMTSSDKDFRFMATNDLMTELQKDSIKLDDDSERKVVKMILKLLEDKNGEVQNLAVKCLGPLVSKVKEYQVETIVDTLCTNMLSDKEQLRDISSIGLKTVIGELPPASSGSALAANVCKKITGRLTSAIAKQEDVSVQLEALDIMADMLSRQGGLLVNFHPSILTCLLPQLTSPRLAVRKRTIIALGHLVMSCGNIVFVDLIEHLLSELSKNDSMSTTRTYIQCIAAISRQAGHRIGEYLEKIIPLVVKFCNVDDDELREYCIQAFESFVRRCPKEVYPHVSTIINICLKYLTYDPNYNYDDEDEDENAMDADGGDDDDQGSDDEYSDDDDMSWKVRRAAAKCLDAVVSTRHEMLPEFYKTVSPALISRFKEREENVKADVFHAYLSLLKQTRPVQSWLCDPDAMEQGETPLTMLQSQVPNIVKALHKQMKEKSVKTRQCCFNMLTELVNVLPGALTQHIPVLVPGIIFSLNDKSSSSNLKIDALSCLYVILCNHSPQVFHPHVQALVPPVVACVGDPFYKITSEALLVTQQLVKVIRPLDQPSSFDATPYIKDLFTCTIKRLKAADIDQEVKERAISCMGQIICNLGDNLGSDLPNTLQIFLERLKNEITRLTTVKALTLIAGSPLKIDLRPVLGEGVPILASFLRKNQRALKLGTLSALDILIKNYSDSLTAAMIDAVLDELPPLISESDMHVSQMAISFLTTLAKVYPSSLSKISGSILNELIGLVRSPLLQGGALSAMLDFFQALVVTGTNNLGYMDLLRMLTGPVYSQSTALTHKQSYYSIAKCVAALTRACPKEGPAVVGQFIQDVKNSRSTDSIRLLALLSLGEVGHHIDLSGQLELKSVILEAFSSPSEEVKSAASYALGSISVGNLPEYLPFVLQEITSQPKRQYLLLHSLKEIISSASVVGLKPYVENIWALLLKHCECAEEGTRNVVAECLGKLTLIDPETLLPRLKGYLISGSSYARSSVVTAVKFTISDHPQPIDPLLKNCIGDFLKTLEDPDLNVRRVALVTFNSAAHNKPSLIRDLLDTVLPHLYNETKVRKELIREVEMGPFKHTVDDGLDIRKAAFECMYTLLDSCLDRLDIFEFLNHVEDGLKDHYDIKMLTFLMLVRLSTLCPSAVLQRLDRLVEPLRATCTTKVKANSVKQEFEKQDELKRSAMRAVAALLTIPEAEKSPLMSEFQSQISSNPELAAIFESIQKDSSSTNLESMDTS
- Cul1 neddylation in the presence of Dcn1^P and Ubc12 N-terminal acetylation (hCul1^ctd-hRbx1 [2]): blocked
